Assay [1] deals with Sodium-dependent serotonin transporter (Homo sapiens, UniProt P31645). Nature of the assay: Binding affinity to serotonin transporter (SERT) in membranes of cells selectively expressing the human genes for SERT. The format is cell membranes.
Assay [2] concerns the target Norepinephrine transporter (Rattus norvegicus, UniProt Q9WTR4). Description: Binding affinity to norepinephrine (NE) transporter in rat forebrain tissue. The class given is tissue-based.
Assay [3] deals with Sodium-dependent dopamine transporter (Homo sapiens, UniProt Q01959). Nature of the assay: Binding affinity to dopamine transporter in membranes of cells selectively expressing the human genes for DAT. The format is cell membranes.
Assay [4] has as its target Sodium-dependent dopamine transporter (Rattus norvegicus, UniProt P23977). Nature of the assay: Binding affinity to dopamine transporter (DAT) in rat forebrain tissue. The class given is tissue-based.
Assay [5] addresses Sodium-dependent serotonin transporter (Rattus norvegicus, UniProt P31652). Description: Binding affinity to serotonin transporter (SERT) in rat forebrain tissue. The class given is tissue-based.
Assay [6] addresses Monoamine transporters; serotonin & dopamine (Homo sapiens) (UniProt P31645+Q01959). Description: Binding selectivity ratio at human serotonin transporter versus dopamine transporter (hSERT/hDAT). The class given is protein assay.
The target in assay [7] is Sodium-dependent noradrenaline transporter (Homo sapiens, UniProt P23975). Nature of the assay: Binding affinity to norepinephrine (NE) transporter in membranes of cells selectively expressing the human genes for NET. The format is cell membranes.
Sodium-dependent noradrenaline transporter, sequence (P23975 whole entry): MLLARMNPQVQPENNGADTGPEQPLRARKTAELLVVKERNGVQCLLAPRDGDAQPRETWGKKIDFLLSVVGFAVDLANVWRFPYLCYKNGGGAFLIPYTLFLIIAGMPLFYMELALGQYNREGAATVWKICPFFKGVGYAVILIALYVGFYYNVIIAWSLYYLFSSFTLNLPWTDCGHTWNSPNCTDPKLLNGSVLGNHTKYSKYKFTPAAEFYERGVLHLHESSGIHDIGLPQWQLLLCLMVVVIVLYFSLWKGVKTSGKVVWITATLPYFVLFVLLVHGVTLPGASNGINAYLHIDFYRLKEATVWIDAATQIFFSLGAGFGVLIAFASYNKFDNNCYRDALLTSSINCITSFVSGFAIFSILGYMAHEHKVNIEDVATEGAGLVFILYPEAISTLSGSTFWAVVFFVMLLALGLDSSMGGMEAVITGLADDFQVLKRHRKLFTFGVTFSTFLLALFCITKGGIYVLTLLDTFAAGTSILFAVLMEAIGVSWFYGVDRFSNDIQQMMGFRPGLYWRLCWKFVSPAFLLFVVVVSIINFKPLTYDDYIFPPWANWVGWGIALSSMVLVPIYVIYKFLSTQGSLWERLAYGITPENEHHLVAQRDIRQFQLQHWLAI

Sodium-dependent serotonin transporter (Rattus norvegicus, UniProt P31652), sequence (P31652 whole entry): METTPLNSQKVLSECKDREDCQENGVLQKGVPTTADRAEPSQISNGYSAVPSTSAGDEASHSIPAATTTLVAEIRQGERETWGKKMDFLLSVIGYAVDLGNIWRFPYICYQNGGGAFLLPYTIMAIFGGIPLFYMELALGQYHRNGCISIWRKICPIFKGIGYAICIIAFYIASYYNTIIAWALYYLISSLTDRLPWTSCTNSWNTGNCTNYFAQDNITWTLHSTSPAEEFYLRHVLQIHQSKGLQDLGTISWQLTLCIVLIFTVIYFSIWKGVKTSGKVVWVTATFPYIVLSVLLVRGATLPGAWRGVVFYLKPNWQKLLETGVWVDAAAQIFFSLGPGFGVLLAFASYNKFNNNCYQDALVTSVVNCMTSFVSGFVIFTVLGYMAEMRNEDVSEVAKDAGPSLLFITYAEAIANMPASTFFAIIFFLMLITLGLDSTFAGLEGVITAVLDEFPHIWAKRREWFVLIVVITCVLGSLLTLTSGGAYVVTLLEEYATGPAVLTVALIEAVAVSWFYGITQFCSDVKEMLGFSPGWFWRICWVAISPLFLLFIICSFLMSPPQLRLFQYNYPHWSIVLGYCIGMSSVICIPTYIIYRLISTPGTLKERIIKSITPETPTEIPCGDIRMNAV
Norepinephrine transporter, sequence (Q9WTR4 whole entry): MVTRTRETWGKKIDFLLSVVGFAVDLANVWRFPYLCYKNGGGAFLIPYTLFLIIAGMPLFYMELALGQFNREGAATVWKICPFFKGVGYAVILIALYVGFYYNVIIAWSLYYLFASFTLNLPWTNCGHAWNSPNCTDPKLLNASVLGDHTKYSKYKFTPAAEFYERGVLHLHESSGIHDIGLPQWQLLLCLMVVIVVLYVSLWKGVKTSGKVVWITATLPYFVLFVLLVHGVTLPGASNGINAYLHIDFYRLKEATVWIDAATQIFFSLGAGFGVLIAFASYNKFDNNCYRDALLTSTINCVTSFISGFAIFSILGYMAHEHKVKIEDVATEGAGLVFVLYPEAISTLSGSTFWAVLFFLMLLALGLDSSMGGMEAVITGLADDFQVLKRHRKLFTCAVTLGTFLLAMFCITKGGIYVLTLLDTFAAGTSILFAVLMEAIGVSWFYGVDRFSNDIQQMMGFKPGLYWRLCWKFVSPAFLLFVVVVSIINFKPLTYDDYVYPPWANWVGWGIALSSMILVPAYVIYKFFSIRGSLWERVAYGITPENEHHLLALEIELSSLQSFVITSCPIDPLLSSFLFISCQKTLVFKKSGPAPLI
Sodium-dependent dopamine transporter (Homo sapiens, UniProt Q01959), sequence (Q01959 whole entry): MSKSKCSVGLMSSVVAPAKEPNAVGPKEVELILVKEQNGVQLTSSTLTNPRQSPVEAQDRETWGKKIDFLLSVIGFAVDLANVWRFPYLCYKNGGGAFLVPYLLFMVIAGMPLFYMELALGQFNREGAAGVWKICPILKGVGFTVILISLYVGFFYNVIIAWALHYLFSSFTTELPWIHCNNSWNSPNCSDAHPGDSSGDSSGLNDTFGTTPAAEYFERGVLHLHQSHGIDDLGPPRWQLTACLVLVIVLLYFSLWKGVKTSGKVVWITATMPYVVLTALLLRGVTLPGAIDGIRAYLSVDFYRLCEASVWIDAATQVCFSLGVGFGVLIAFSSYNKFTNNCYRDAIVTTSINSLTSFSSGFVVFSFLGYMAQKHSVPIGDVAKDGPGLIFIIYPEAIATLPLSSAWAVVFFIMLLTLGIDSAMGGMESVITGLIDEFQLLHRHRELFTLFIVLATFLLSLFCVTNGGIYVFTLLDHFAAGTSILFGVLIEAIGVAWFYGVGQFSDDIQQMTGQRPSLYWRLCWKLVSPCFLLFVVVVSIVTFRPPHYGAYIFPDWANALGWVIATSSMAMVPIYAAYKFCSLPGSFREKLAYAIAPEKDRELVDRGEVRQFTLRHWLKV
Sodium-dependent dopamine transporter (Rattus norvegicus, UniProt P23977), sequence (P23977 whole entry): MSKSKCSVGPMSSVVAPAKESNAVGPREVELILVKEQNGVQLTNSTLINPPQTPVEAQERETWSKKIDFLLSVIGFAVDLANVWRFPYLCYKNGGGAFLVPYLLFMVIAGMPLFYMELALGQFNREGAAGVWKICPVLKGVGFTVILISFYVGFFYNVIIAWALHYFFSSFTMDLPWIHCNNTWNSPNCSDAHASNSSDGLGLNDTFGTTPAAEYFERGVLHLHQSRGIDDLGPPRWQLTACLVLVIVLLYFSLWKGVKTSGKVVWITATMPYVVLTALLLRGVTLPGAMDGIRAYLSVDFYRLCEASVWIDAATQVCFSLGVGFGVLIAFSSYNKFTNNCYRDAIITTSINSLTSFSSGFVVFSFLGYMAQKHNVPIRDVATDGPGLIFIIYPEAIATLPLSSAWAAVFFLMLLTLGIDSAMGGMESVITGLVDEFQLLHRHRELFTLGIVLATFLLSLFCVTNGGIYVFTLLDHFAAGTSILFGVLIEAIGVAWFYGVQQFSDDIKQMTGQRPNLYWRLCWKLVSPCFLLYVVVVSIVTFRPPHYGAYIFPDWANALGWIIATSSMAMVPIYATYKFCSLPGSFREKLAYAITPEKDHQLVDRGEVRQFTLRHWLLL
Monoamine transporters; serotonin & dopamine (Homo sapiens), sequence (P31645 whole entry, looked up): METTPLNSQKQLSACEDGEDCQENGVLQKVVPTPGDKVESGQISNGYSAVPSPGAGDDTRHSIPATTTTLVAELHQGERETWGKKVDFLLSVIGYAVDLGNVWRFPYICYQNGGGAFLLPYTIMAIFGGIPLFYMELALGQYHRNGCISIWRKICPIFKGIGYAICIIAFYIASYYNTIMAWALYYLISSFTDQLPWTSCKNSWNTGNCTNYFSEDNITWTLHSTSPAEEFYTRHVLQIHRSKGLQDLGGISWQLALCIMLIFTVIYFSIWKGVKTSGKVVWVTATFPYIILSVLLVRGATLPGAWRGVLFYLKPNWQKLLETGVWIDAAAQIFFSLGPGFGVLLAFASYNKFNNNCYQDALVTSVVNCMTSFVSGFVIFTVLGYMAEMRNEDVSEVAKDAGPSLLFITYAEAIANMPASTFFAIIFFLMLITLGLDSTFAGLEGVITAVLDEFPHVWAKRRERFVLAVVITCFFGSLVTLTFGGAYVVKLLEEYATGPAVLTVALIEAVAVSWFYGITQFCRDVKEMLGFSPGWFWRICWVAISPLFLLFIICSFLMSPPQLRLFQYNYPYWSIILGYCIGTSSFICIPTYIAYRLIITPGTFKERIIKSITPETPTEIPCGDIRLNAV
Monoamine transporters; serotonin & dopamine (Homo sapiens), sequence (Q01959 whole entry, looked up): as the sequence (Q01959 whole entry) above
Sodium-dependent serotonin transporter (Homo sapiens, UniProt P31645), sequence (P31645 whole entry): as the sequence (P31645 whole entry, looked up) above

On to `COC(=O)C1C(c2cccc(-c3ccccc3)c2)CC2CCC1N2C` (stereo not drawn), for which the Ki was 38.6 nM in assay [1]; greater than 10000 nM in assay [2]; 8.83 nM in assay [3]; 9.59 nM in assay [4]; 35.2 nM in assay [5]; 1360 nM in assay [7]. Also, the Selectivity ratio in assay [6] is 0.229.
`COC(=O)C1C2CCC(CC1c1ccc(I)cc1)N2` (stereo not drawn) gave a Ki in assay [5] of 0.062 nM.
Take `COC(=O)C1C(c2cccc(-c3ccsc3)c2)CC2CCC1N2C` (stereo not drawn): the Ki is 74.1 nM in assay [1]; greater than 10000 nM in assay [2]; 29.8 nM in assay [3]; 23.7 nM in assay [4]; 82.5 nM in assay [5]; greater than 20000 nM in assay [7]. The Selectivity ratio in assay [6] was 0.402.
With `COC(=O)[C@@H]1C2CC[C@H](C[C@@H]1c1ccc(I)cc1)N2C`, the Ki was 0.41 nM in assay [5] and 11.2 nM in assay [7].
For the compound `COC(=O)C1C2CCC(CC1c1cccc(I)c1)N2` (stereo not drawn), the Ki in assay [1] stood at 1.23 nM; in assay [2] it was 282 nM; in assay [3] it was 438 nM; in assay [4], 21.2 nM; in assay [5], 1.35 nM; in assay [7], 118 nM. The Selectivity ratio in assay [6] is 356.
`COC(=O)C1C(c2cccc(-c3ccco3)c2)CC2CCC1N2C` (stereo not drawn): the Ki in assay [1] stood at 55.1 nM; in assay [2] it was 10000 nM; in assay [3], 54 nM; in assay [4], 30.8 nM; in assay [5], 41.7 nM; in assay [7] it was 3020 nM. The Selectivity ratio in assay [6] is 0.98.
Take `COC(=O)C1C(c2cccc(I)c2)CC2CCC1N2C` (stereo not drawn): the Ki in assay [1] was 9.63 nM; in assay [2], greater than 10000 nM; in assay [3], 182 nM; in assay [4] it was 100 nM; in assay [5], 9.82 nM; in assay [7] it was 1040 nM. Besides, in assay [6], the Selectivity ratio was determined as 18.9.

The values are drawn from ChEMBL document CHEMBL1147545, “Synthesis and monoamine transporter affinity of 3'-analogs of 2-beta-carbomethoxy-3-beta-(4'-iodophenyl)tropane (beta-CIT)” (Bioorg Med Chem Lett, 2004).
